Structures are written as SMILES.

In the first experiment the test system is cell cycle progression in M-phase. Put plainly: Analysis of cell cycle status: M-phase block (phospho-Histone 3 serine 10, ArrayScan). The experiment is classed as cell-based. Conditions: 5 hours incubation; vs 500 nM vinblastine (100% M-phase block) and DMSO (0%); read-out: M-phase block activities (IC50 range). The procedure: Cells are seeded onto 96-well Packard View plates and incubated overnight. Test compounds are added to individual wells the following day at 10× concentrations and the plates returned to the incubator.
For identification of compounds that blocked cell cycle progression in M-phase, cells are incubated with compounds for 5 hours. After incubation, the cell growth media is removed and the cell monolayers are fixed with 3.7% formaldehyde, followed by treatment with 0.1% Triton X-100, and probed with a monoclonal phospho-specific Histone 3 serine 10 antibody. Bound primary antibody is detected with a FITC or TRITC conjugated secondary antibody. The cellular DNA is stained using Hoechst dye. Fixed cells are visualized using an ArrayScan 4.5 HCS plate reader. Cells positive for antibody binding are identified and quantified using the Target Activation Algorithm. IC50 Data from test compounds is generated by comparing test compound activity to the percentage of cells in M-phase detected in 500 nM vinblastine treated cells (100% M-phase block), and the percentage of M-phase cells detected in the DMSO control treated cells (0% M-phase block).
Take `CC(=O)NC(=O)Nc1ccc(-n2c3c(c4ccccc42)C(=O)CCC3)c(Cl)c1` [Compound 40, 1-Acetyl-3-[3-chloro-4-(4-oxo-1,2,3,4-tetrahydro-carbazol-9-yl)-phenyl]-urea]: the IC50 was under 0.5 µM.
Still for that read-out and setting: the value for `CC(=O)c1cn(-c2ccc(N)cc2Cl)c2cc(Cl)ccc12` [Compound 18, 1-[1-(4-Amino-2-chloro-phenyl)-6-chloro-1H-indol-3-yl]-ethanone] was 0.5 to 5 µM; that for `CC(=O)c1cn(-c2ccc(C(N)=O)cc2Cl)c2cc(Cl)ccc12` [Compound 44, 4-(3-Acetyl-6-chloro-indol-1-yl)-3-chloro-benzamide] was under 0.5 µM.
On the same count and under the same terms, the value for `CC(=O)c1cn(-c2ccc(NC(N)=O)cc2Cl)c2ccc(Cl)cc12` [Compound 17, [4-(3-Acetyl-5-chloro-indol-1-yl)-3-chloro-phenyl]-urea] was 0.5 to 5 µM; that for `COCCNc1cc(-n2cc(C(C)=O)c3ccccc32)ccc1C(N)=O` [Compound 35, 4-(3-Acetyl-indol-1-yl)-2-(2-methoxy-ethylamino)-benzamide] was 0.5 to 5 µM.
The same measure, in the same setting: the value for `NC(=O)c1ccc(-n2c3c(c4ccccc42)C(=O)CCC3)c(C(F)(F)F)c1` [Compound 29, 4-(4-Oxo-1,2,3,4-tetrahydro-carbazol-9-yl)-3-trifluoromethyl-benzamide] was under 0.5 µM.
As to `COc1cc(-n2cc(C(C)=O)c3ccccc32)ccc1C(N)=O` [Compound 43, 4-(3-Acetyl-indol-1-yl)-2-methoxy-benzamide], the IC50 is under 0.5 µM.
Same read-out and setting: as for `C=CCNc1ccc(-n2c3c(c4ccccc42)C(=O)CCC3)c(C(F)(F)F)c1` [Compound 38, 9-(4-Allylamino-2-trifluoromethyl-phenyl)-1,2,3,9-tetrahydro-carbazol-4-one], the figure is 0.5 to 5 µM.
On the same count and under the same terms, the value for `NC(=O)Nc1ccc(-n2c3c(c4cc(Cl)ccc42)C(=O)CCC3)c(Cl)c1` [Compound 41, [3-Chloro-4-(6-chloro-4-oxo-1,2,3,4-tetrahydro-carbazol-9-yl)-phenyl]-urea] was under 0.5 µM; that for `CC(=O)c1cn(-c2ccc(N)cc2Br)c2ccccc12` [Compound 37, 1-[1-(4-Amino-2-bromo-phenyl)-1H-indol-3-yl]-ethanone] was 5 to 50 µM.

In a further experiment the test system is PC-3 cell proliferation. In words: Cell proliferation assay (Cyquant DNA assay). Type of experiment: cell-based. Conditions: Homo sapiens; PC-3 cells, 2-5 days incubation, vs DMSO (100%) and 10 μM Actinomycin D (0%); read-out: inhibitory activities against PC-3 cell proliferation (IC50 range). The procedure:
A panel of cancer cell lines is obtained from the DCTP Tumor Repository, National Cancer Institute (Frederick, Md.) or ATCC (Rockville, Md.). Cell cultures are maintained in Hyclone RPMI 1640 medium (Logan, Utah) supplemented with 10% fetal bovine serum and 20 mM HEPES buffer, final pH 7.2, at 37° C. with a 5% CO2 atmosphere. Cultures are maintained at sub-confluent densities.
For proliferation assays, cells are seeded with the appropriate medium into 96 well plates at 1,000-2,500 cells per well, depending on the cell line, and are incubated overnight. The following day, test compound, DMSO solution (negative control), or Actinomycin D (positive control) is added to the appropriate wells as 10× concentrated stocks prepared in phosphate buffered saline. The cell plates where then incubated for an additional 2-5 days, depending on the cell line, to allow proliferation to occur. To measure cell density, growth medium is removed from the adherent cell lines, and the plates stored at −80° C. Using these assay plates, relative amounts of DNA in each well is determined using the Cyquant DNA assay kit from […] (Eugene, Oreg.) following the manufacturer's directions. Results for each compound treatment are compared to DMSO vehicle control (100%) and 10 μM Actinomycin D treated cells (0%).
Turning to `NC(=S)c1ccc(-n2c3c(c4ccccc42)C(=O)CCC3)c(Br)c1` [Compound 5, 3-Bromo-4-(4-oxo-1,2,3,4-tetrahydro-carbazol-9-yl)thiobenzamide], the IC50 was under 0.5 µM.
Same read-out and setting: as for `NC(=O)c1ccc(C(F)(F)F)c(-n2c3c(c4ccccc42)C(=O)CCC3)c1` [Compound 14, 3-(4-Oxo-1,2,3,4-tetrahydro-carbazol-9-yl)-4-trifluoromethyl-benzamide], the figure is 5 to 50 µM.
The same measure, in the same setting: as for `NC(=O)Nc1ccc(-n2c3c(c4ccccc42)C(=O)CCC3)c(Cl)c1` [Compound 13, 1-(3-chloro-4-(4-oxo-3,4-dihydro-1H-carbazol-9(2H)-yl)phenyl)urea], the figure is under 0.5 µM; as for `NC(=O)c1ccc(-n2c3c(c4ccccc42)/C(=N/O)CCC3)c(Br)c1` [Compound 4, 3-Bromo-4-(4-hydroxyimino-1,2,3,4-tetrahydro-carbazol-9-yl)benzamide], 0.5 to 5 µM.
On the same count and under the same terms, as for `C=CCNc1cc(-n2c3c(c4ccccc42)C(=O)CCC3)ccc1C(N)=O` [Compound 20, 2-Allylamino-4-(4-oxo-1,2,3,4-tetrahydro-carbazol-9-yl)-benzamide], the figure is 0.5 to 5 µM; as for `CC(=O)c1cn(-c2ccc(C(N)=O)cc2Cl)c2ccccc12` [Compound 6, 4-(3-Acetyl-indol-1-yl)-3-chloro-benzamide], under 0.5 µM; as for `COCCNc1ccc(-n2c3c(c4ccccc42)C(=O)CCC3)c(C(F)(F)F)c1` [Compound 10, 9-[4-(2-methoxy-ethylamino)-2-trifluoromethyl-phenyl]-1,2,3,9-tetrahydro-carbazol-4-one], 0.5 to 5 µM.
Turning to `NC(=O)c1ccc(-n2c3c(c4ccccc42)C(=O)NCC3)c(Cl)c1` [Compound 22, 3-Chloro-4-(1-oxo-1,2,3,4-tetrahydro-pyrido[4,3-b]indol-5-yl)-benzamide], the IC50 was 0.5 to 5 µM.
On the same count and under the same terms, as for `C/C(=N\O)c1cn(-c2ccc(C(N)=O)cc2Cl)c2ccccc12` [Compound 7, 4-(3-(1-hydroxyimino-ethyl)-indol-1-yl)-3-chloro-benzamide], the figure is under 0.5 µM.
The same measure, in the same setting: the value for `NC(=O)c1ccc(-n2c3c(c4ccccc42)C(=O)CCC3)c(Cl)c1` [Compound 2, 3-Chloro-4-(4-oxo-1,2,3,4-tetrahydro-carbazol-9-yl)benzamide] was under 0.5 µM.

For the origin of these results see patent publication US20070185184A1, “Carbazole derivatives” (Serenex, Inc., priority 2005, published 2007).
